Structures can show the parent of a compound that is named as a salt.
target: T1, Full length human TNNI3K (hTNNI3K) (Homo sapiens, UniProt Q59H18); assay: Fluorescent polarization assay of compound inhibition on hTNNI3K ATP binding (Biological Assay Method I); conditions: displacement of fluorescent ligand from hTNNI3K ATP binding pocket; mean of a minimum of 2 experiments; read-out: pXC50 (the source's name) (converted)
T1 construct: His-MBP-TEV-Full length human TNNI3K (hTNNI3K); His (N); MBP (N); TEV cleavage site (N); made in house; host or cells: baculovirus system (printed 'Baculokinase system')
T1 sequence (Q59H18 1-835): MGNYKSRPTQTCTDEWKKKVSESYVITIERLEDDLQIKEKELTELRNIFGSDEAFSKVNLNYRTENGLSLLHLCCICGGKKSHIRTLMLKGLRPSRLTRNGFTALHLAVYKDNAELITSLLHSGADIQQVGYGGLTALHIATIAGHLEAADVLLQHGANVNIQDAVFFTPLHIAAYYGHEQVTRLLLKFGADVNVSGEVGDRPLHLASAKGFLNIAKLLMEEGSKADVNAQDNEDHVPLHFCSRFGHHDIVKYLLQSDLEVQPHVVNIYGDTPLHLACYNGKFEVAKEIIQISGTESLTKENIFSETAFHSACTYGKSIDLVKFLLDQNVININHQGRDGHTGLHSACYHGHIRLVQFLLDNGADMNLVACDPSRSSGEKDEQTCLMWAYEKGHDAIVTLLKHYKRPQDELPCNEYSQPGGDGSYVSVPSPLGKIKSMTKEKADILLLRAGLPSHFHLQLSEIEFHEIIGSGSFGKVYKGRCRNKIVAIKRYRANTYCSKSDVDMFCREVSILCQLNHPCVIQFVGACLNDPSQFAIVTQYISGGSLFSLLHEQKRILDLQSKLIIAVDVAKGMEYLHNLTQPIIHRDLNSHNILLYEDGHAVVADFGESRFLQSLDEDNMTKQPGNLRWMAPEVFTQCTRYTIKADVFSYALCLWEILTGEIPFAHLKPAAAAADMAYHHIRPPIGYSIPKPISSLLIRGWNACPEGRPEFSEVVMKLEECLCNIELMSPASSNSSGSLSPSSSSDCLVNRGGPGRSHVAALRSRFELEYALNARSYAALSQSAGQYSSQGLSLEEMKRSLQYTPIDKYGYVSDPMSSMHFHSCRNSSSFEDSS
Description: Materials: His-MBP-TEV-Full length human TNNI3K (hTNNI3K) was expressed in Baculokinase system and purified from amylase affinity column followed by Superdex200. The fluorescent ligand 5-({[2-({[3-({4-[(5-hydroxy-2-methylphenyl)amino]-2-pyrimidinyl}amino)phenyl]carbonyl}amino)ethyl]amino}carbonyl)-2-(6-hydroxy-3-oxo-3H-xanthen-9-yl)benzoic acid was used. The preparation of this fluorescent ligand is disclosed in U.S. Provisional Patent Application No. 61/237,815 filed Aug. 28, 2009, the disclosure of which is incorporated by reference herein. The other buffer components, including MgCl2 (Catalog Number M1028), Bis-Tris (Catalog Number B7535), DTT (Catalog Number D9779) and Chaps (Catalog Number C3023) were purchased from Sigma-Aldrich.
Biological Assay Method I:
A fluorescent polarization assay was used to determine does response of compound inhibition on hTNNI3K ATP binding.
Solution 1: Ten (10) mL of a 5 nM 5-({[2-({[3-({4-[(5-hydroxy-2-methylphenyl)amino]-2-pyrimidinyl}amino)phenyl]carbonyl}amino)ethyl]amino}carbonyl)-2-(6-hydroxy-3-oxo-3H-xanthen-9-yl)benzoic acid solution (Solution 1) was prepared by mixing 5 μL of 1M DTT and 80 μL of 10% (w/v) Chaps and 5 μL of a 10 μM 5-({[2-({[3-({4-[(5-hydroxy-2-methylphenyl)amino]-2-pyrimidinyl}amino)phenyl]carbonyl}amino) ethyl]amino}carbonyl)-2-(6-hydroxy-3-oxo-3H-xanthen-9-yl)benzoic acid stock solution into 9910 μL buffer (20 mM Tris, 15 mM MgCl2, pH 7.5). (Stock solution: 10 μM solution of 5-({[2-({[3-({4-[(5-hydroxy-2-methylphenyl)amino]-2-pyrimidinyl}amino)phenyl]carbonyl}amino)ethyl]amino}carbonyl)-2-(6-hydroxy-3-oxo-3H-xanthen-9-yl)benzoic acid in 100% DMSO)
Solution 2 was formed by mixing 53.8 μL of 2.6 μM hTNNI3K with a 6946.2 μL aliquot of Solution 1 (the above 5-({[2-({[3-({4-[(5-hydroxy-2-methylphenyl)amino]-2-pyrimidinyl}amino)phenyl]carbonyl}amino)ethyl]amino}carbonyl)-2-(6-hydroxy-3-oxo-3H-xanthen-9-yl)benzoic acid solution) to make up a 7 mL of mixture of hTNNI3K and 5-({[2-({[3-({4-[(5-hydroxy-2-methylphenyl)amino]-2-pyrimidinyl}amino)phenyl]carbonyl}amino)ethyl]amino}carbonyl)-2-(6-hydroxy-3-oxo-3H-xanthen-9-yl)benzoic acid (Solution 2).
Fifty (50) nL of inhibitors in DMSO (or DMSO controls) were stamped into a 384-well low volume Greiner black plate, followed by addition of 5 μL of Solution 1 to column 18 and 5 μL Solution 2 to columns 1-17 and 19-24 of the plate. The plate was then spun at 500 rpm for 30 seconds and incubated at room temperature for 60 minutes. After that, the fluorescent polarization was measured on Analyst (ex/em: 485/530 nm, Dichroic: 505). For dose response experiments, normalized data were fit by ABASE/XC50 and pXC50=(log((b−y)/(y−a)))/d−log(x), where x is the compound concentration and y is the % activity at specified compound concentration, a is the minimum % activity, b is the maximum % activity, and d is the Hill slope.
The pXC50s are averaged to determine a mean value, for a minimum of 2 experiments.

| Structure (SMILES) | IC50 [nM] |
| --- | --- |
| CNS(=O)(=O)c1cc(Nc2ncnc3cc(OC)c(OC)c(OC)c23)c(OCC(F)(F)F)cc1F [Example 58, 2-fluoro-N-methyl-4-[(2,2,2-trifluoroethyl)oxy]-5-{[5,6,7-tris(methyloxy)-4-quinazolinyl]amino}benzene sulfonamide trifluoroacetate] | 10 to 100 |
| CNS(=O)(=O)c1cccc(Nc2ncnc3cc(OC)cc(OC)c23)c1 [Example 30, 3-{[5,7-bis(methyloxy)-4-quinazolinyl]amino}-N-methylbenzenesulfonamide hydrochloride] | 10 to 100 |
| CNS(=O)(=O)c1ccc(OC(C)C(F)(F)F)c(Nc2ncnc3cc(OC)cc(OC)c23)c1 (single isomer, unassigned) [Example 82, 3-{[5,7-bis(methyloxy)-4-quinazolinyl]amino}-N-methyl-4-[(2,2,2-trifluoro-1-methylethyl)oxy]benzenesulfonamide hydrochloride] | 1 to 10 |
| CNS(=O)(=O)c1ccc(OC(F)(F)F)c(Nc2ncnc3cc(OC)cc(OC)c23)c1 [Example 54, 3-{[5,7-bis(methyloxy)-4-quinazolinyl]amino}-N-methyl-4-[(trifluoromethyl)oxy] benzenesulfonamide hydrochloride] | 1 to 10 |
| CNS(=O)(=O)c1ccc(SC)c(Nc2ncnc3cc(OC)cc(OC)c23)c1 [Example 53, 3-{[5,7-bis(methyloxy)-4-quinazolinyl]amino}-N-methyl-4-(methylthio) benzenesulfonamide hydrochloride] | 10 to 100 |
| CNS(=O)(=O)c1ccc(S(C)(=O)=O)c(Nc2ncnc3cc(OC)cc(OC)c23)c1 [Example 77, 3-{[5,7-bis(methyloxy)-4-quinazolinyl]amino}-N-methyl-4-(methylsulfonyl)benzenesulfonamide trifluoroacetate] | 10 to 100 |
| CNS(=O)(=O)c1ccc(Cl)c(Nc2ncnc3cc(OC)cc(OC)c23)c1 [Example 39, 3-{[5,7-bis(methyloxy)-4-quinazolinyl]amino}-4-chloro-N-methylbenzenesulfonamide hydrochloride] | 10 to 100 |
| CNS(=O)(=O)c1ccc(N(C)C)c(Nc2ncnc3cc(OCCOC)c(OCCOC)cc23)c1 [Example 17, 3-[(6,7-bis{[2-(methyloxy)ethyl]oxy}-4-quinazolinyl)amino]-4-(dimethylamino)-N-methylbenzenesulfonamide trifluoroacetate] | 10 to 100 |
| CCOc1cc2ncnc(Nc3cc(S(=O)(=O)NC)ccc3OCC(F)(F)F)c2cc1OC [Example 80, 3-(7-ethoxy-6-methoxy-quinazolin-4-ylamino)-N-methyl-4-(2,2,2-trifluoro-ethoxy)-benzenesulfonamide trifluoroacetate] | 10 to 100 |
| CNS(=O)(=O)c1ccc(OCC(F)(F)F)c(Nc2ncnc3cc(OC)c(I)cc23)c1 [Example 70, 3-{[6-iodo-7-(methyloxy)-4-quinazolinyl]amino}-N-methyl-4-[(2,2,2-trifluoroethyl)oxy] benzenesulfonamide] | 10 to 100 |
| CNS(=O)(=O)c1ccc(OC)c(Nc2ncnc3cc(OCCOC)c(OCCOC)cc23)c1 [Example 18, 3-[(6,7-bis{[2-(methyloxy)ethyl]oxy}-4-quinazolinyl)amino]-N-methyl-4-(methyloxy) benzenesulfonamide hydrochloride] | 10 to 100 |
| CNS(=O)(=O)c1ccc(N(C)C)c(Nc2ncnc3cc(OC)c(OC)cc23)c1 [Example 1, 3-{[6,7-bis(methyloxy)-4-quinazolinyl]amino}-4-(dimethylamino)-N-methylbenzenesulfonamide hydrochloride] | 10 to 100 |
| CNS(=O)(=O)c1ccc(OCC(F)(F)F)c(Nc2ncnc3cc(OC)c(OC)cc23)c1 [Example 11, 3-{[6,7-bis(methyloxy)-4-quinazolinyl]amino}-N-methyl-4-[(2,2,2-trifluoroethyl)oxy]benzenesulfonamide hydrochloride] | 10 to 100 |
| CNS(=O)(=O)c1ccc(N2CCOCC2)c(Nc2ncnc3cc(OC)cc(OC)c23)c1 [Example 40, 3-{[5,7-bis(methyloxy)-4-quinazolinyl]amino}-N-methyl-4-(4-morpholinyl) benzenesulfonamide hydrochloride] | 10 to 100 |
| CNS(=O)(=O)c1ccc(N(C)C)c(Nc2ncnc3cc(OC)cc(OC)c23)c1 [Example 32, 3-{[5,7-bis(methyloxy)-4-quinazolinyl]amino}-4-(dimethylamino)-N-methylbenzenesulfonamide] | 1 to 10 |

Further lines, results first:

| IC50 [nM] | Structure (SMILES) |
| --- | --- |
| 10 to 100 | CNS(=O)(=O)c1ccc(N(C)C)c(Nc2ncnc3ccc(N(C)C)cc23)c1 [Example 86, 4-(dimethylamino)-3-((6-(dimethylamino)quinazolin-4-yl)amino)-N-methylbenzenesulfonamide bis(trifluoroacetate)] |
| 1 to 10 | CNS(=O)(=O)c1ccc(N2C(C)CCC2C)c(Nc2ncnc3cc(OC)c(OC)cc23)c1 (stereo not shown) [Example 27, 3-{[6,7-bis(methyloxy)-4-quinazolinyl]amino}-4-(2,5-dimethyl-1-pyrrolidinyl)-N-methylbenzenesulfonamide trifluoroacetate] |
| 10 to 100 | CNS(=O)(=O)c1ccc(N2CCC(F)(F)CC2)c(Nc2ncnc3cc(OC)c(OC)cc23)c1 [Example 14, 3-{[6,7-bis(methyloxy)-4-quinazolinyl]amino}-4-(4,4-difluoro-1-piperidinyl)-N-methylbenzenesulfonamide trifluoroacetate] |
| 10 to 100 | CNS(=O)(=O)c1ccc(N(C)C)c(Nc2ncnc3cc(N)ccc23)c1 [Example 85, 3-((7-aminoquinazolin-4-yl)amino)-4-(dimethylamino)-N-methylbenzenesulfonamide] |
| 10 to 100 | CNS(=O)(=O)c1ccc(N2C(C)CCC2C)c(Nc2ncnc3ccc(Cl)cc23)c1 (stereo not shown) [Example 28, 3-[(6-chloro-4-quinazolinyl)amino]-4-(2,5-dimethyl-1-pyrrolidinyl)-N-methylbenzenesulfonamide trifluoroacetate] |
| 1 to 10 | CNS(=O)(=O)c1ccc(N2CCC[C@@H]2C(F)(F)F)c(Nc2ncnc3cc(OC)c(OC)cc23)c1 [Example 21, 3-{[6,7-bis(methyloxy)-4-quinazolinyl]amino}-N-methyl-4-[(2R)-2-(trifluoromethyl)-1-pyrrolidinyl] benzenesulfonamide trifluoroacetate] |
| 10 to 100 | CNc1ccc2ncnc(Nc3cc(S(=O)(=O)NC)ccc3N(C)C)c2c1 [Example 87, 4-(dimethylamino)-N-methyl-3-((6-(methylamino)quinazolin-4-yl)amino)benzenesulfonamide bis(trifluoroacetate)] |
